Laboratory results as given in ChEMBL document CHEMBL5252552, “Defined concatenated α6α1β3γ2 GABAA receptor constructs reveal dual action of pyrazoloquinolinone allosteric modulators” (Bioorg Med Chem, 2019).

Experiments:
[1] = biological target: Gamma-aminobutyric acid receptor subunit alpha-6/beta-3/gamma-2 (Rattus norvegicus) (UniProt P18508+P30191+P63079); test: Positive allosteric modulation of rat recombinant GABAA alpha6beta3gamma2 receptor expressed in Xenopus laevis oocytes assessed as maximal efficacy at -80 mV holding potential at 30 nM in presence of GABA EC1 to 1.5 by two-electrode voltage-clamp assay; assay type: cell-based; settings: Oocyte, filed as positive allosteric modulator
[2] = biological target: Gamma-aminobutyric acid receptor subunit alpha-1/alpha-6/beta-3/gamma-2 (Rattus norvegicus) (UniProt P18508+P30191+P62813+P63079); test: Positive allosteric modulation of rat recombinant GABAA gamma2beta3alpha1-beta3alpha6 receptor expressed in Xenopus laevis oocytes assessed as maximal efficacy at -80 mV holding potential at 1 nM in presence of GABA EC1 to 1.5 by two-electrode voltage-clamp assay; assay type: cell-based; settings: Oocyte

Efficacy [1]: 49%
Efficacy [2]: 3%
Structure (SMILES): COc1ccc(-n2nc3c4ccc(Br)cc4[nH]cc-3c2=O)cc1
